According to US20160120863A1, “SLC2A TRANSPORTER INHIBITORS” (IOMET PHARMA LTD., priority 2013, published 2016):
One block for each molecule: values may come before it.

Tests used:
Assay type in all cases: cell-based
human GLUT1 = molecular target: T1, human GLUT1 (Homo sapiens, UniProt P11166); test: [3H]-deoxy-D-glucose uptake assay, GLUT1; conditions: [3H]-deoxy-D-glucose uptake in HEK293 cells stably expressing human GLUT1
T1 construct: expressed in transfected cells
T1 sequence (P11166 1-492): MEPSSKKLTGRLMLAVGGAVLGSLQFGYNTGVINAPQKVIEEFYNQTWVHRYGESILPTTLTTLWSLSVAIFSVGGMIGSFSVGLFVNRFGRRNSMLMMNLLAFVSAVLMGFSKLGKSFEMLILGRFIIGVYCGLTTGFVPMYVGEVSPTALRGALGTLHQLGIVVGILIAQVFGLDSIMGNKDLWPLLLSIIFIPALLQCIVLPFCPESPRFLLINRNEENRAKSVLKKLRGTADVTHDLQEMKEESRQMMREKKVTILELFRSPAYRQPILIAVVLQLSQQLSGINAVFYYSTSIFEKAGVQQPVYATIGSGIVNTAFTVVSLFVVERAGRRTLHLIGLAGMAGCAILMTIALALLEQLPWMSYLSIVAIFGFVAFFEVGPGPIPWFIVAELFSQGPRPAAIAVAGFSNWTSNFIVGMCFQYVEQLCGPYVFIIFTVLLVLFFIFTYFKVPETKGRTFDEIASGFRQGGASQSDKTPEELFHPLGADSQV
How it was run: (§1)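 HEK293 cells stably overexpressing human GLUT1 or GLUT2, seeded at 60,000 per well, treated with compounds in glucose-free uptake buffer for 30 min at 37 °C. [3H]-deoxy-D-glucose uptake quantified by scintillation counting after ice-cold PBS washes; IC50 determined.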

human GLUT2 = molecular target: T2, human GLUT2 (Homo sapiens, UniProt P11168); test: [3H]-deoxy-D-glucose uptake assay, GLUT2; conditions: [3H]-deoxy-D-glucose uptake in HEK293 cells stably expressing human GLUT2
T2 construct: expressed in transfected cells
T2 sequence (P11168 1-524): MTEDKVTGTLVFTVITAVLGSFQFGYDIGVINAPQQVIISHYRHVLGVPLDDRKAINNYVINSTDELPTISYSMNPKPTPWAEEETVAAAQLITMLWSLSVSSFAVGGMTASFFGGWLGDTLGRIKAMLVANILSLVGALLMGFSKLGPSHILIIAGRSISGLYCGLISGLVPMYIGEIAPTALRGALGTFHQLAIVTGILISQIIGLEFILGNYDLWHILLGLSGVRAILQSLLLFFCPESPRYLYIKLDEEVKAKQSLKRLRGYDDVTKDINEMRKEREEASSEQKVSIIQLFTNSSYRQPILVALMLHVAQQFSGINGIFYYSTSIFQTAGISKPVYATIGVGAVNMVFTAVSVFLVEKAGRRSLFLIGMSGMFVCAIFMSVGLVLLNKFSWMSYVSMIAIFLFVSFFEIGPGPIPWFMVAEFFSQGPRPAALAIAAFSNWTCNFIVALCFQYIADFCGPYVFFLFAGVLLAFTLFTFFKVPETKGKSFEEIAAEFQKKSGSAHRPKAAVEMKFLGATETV
How it was run: as §1

human GLUT3 = molecular target: T3, human GLUT3 (Homo sapiens, UniProt P11169); test: [3H]-deoxy-D-glucose uptake assay, GLUT3; conditions: [3H]-deoxy-D-glucose uptake in HEK293 cells stably expressing human GLUT3
T3 construct: expressed in transfected cells
T3 sequence (P11169 1-496): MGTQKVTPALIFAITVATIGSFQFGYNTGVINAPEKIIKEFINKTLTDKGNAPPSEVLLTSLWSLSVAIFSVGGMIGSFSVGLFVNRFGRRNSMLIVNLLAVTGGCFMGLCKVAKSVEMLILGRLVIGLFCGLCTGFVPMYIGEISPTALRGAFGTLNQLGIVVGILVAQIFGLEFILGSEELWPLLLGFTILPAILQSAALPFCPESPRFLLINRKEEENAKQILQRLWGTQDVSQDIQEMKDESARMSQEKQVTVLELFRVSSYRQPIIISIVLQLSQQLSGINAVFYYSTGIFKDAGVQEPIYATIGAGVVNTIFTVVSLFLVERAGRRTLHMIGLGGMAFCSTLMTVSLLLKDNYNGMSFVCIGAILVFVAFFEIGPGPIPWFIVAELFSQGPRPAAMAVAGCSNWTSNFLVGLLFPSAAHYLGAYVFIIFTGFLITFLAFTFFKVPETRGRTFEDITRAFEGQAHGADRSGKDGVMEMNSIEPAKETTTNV
How it was run: (§2)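 HEK293 cells stably overexpressing human GLUT3 or GLUT4, preincubated with compound 30 min at 37 °C in glucose-free HEPES buffer pH 7.4. [3H]-deoxy-D-glucose (125 μM final) uptake then run 30 min at 37 °C, quantified by scintillation counting; IC50 determined.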

human GLUT4 = molecular target: T4, human GLUT4 (Homo sapiens, UniProt P14672); test: [3H]-deoxy-D-glucose uptake assay, GLUT4; conditions: [3H]-deoxy-D-glucose uptake in HEK293 cells stably expressing human GLUT4
T4 construct: expressed in transfected cells
T4 sequence (P14672 1-509): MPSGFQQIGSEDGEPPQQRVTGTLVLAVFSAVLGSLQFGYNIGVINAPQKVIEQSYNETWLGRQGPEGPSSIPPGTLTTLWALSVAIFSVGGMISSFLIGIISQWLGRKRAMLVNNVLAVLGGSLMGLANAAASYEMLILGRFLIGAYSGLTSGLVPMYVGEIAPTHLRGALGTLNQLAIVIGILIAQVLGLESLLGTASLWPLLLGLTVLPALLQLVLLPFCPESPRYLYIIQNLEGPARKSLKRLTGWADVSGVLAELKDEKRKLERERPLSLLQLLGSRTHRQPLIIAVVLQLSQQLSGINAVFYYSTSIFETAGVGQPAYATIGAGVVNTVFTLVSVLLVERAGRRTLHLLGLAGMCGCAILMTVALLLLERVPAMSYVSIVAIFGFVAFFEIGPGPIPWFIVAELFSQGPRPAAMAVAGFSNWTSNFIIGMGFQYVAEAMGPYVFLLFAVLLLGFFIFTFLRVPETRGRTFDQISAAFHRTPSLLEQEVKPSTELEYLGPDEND
How it was run: as §2

- GLUT1 pIC50 (human GLUT1): +++ (pIC50 ≧ 6.00)
- GLUT2 pIC50 (human GLUT2): +++ (pIC50 ≧ 6.00)
- GLUT3 pIC50 (human GLUT3): +++ (pIC50 ≧ 6.00)
- GLUT4 pIC50 (human GLUT4): +++ (pIC50 ≧ 6.00)
Structure (SMILES): CS(=O)(=O)Nc1ccc2nc(-c3ccc(Cl)cc3Cl)c(CN3CCN4C(=O)CCC4C3)n2c1 (stereo not shown) [Compound 373]

- GLUT1 pIC50 (human GLUT1): +++ (pIC50 ≧ 6.00)
- GLUT2 pIC50 (human GLUT2): ++ (pIC50 5.00-5.99)
- GLUT3 pIC50 (human GLUT3): +++ (pIC50 ≧ 6.00)
- GLUT4 pIC50 (human GLUT4): +++ (pIC50 ≧ 6.00)
Structure (SMILES): CC(=O)N1CCN(Cc2c(-c3ccc(Cl)cc3)nc3ccc(S(=O)(=O)C(C)C)cn23)CC1 [Compound 382]

- GLUT1 pIC50 (human GLUT1): +++ (pIC50 ≧ 6.00)
- GLUT2 pIC50 (human GLUT2): +++ (pIC50 ≧ 6.00)
- GLUT3 pIC50 (human GLUT3): +++ (pIC50 ≧ 6.00)
- GLUT4 pIC50 (human GLUT4): +++ (pIC50 ≧ 6.00)
Structure (SMILES): CN(c1ccc2nc(-c3ccc(Cl)cc3Cl)c(CN3CCN(C(=O)C4CCOCC4)CC3)n2c1)S(C)(=O)=O [Compound 372]

- GLUT1 pIC50 (human GLUT1): +++ (pIC50 ≧ 6.00)
- GLUT2 pIC50 (human GLUT2): +++ (pIC50 ≧ 6.00)
- GLUT3 pIC50 (human GLUT3): +++ (pIC50 ≧ 6.00)
- GLUT4 pIC50 (human GLUT4): +++ (pIC50 ≧ 6.00)
Structure (SMILES): CC(=O)N1CCN(Cc2c(-c3ccc(Cl)cc3)nc3ccc(N(C(F)F)S(C)(=O)=O)cn23)CC1 [Compound 368]

- GLUT1 pIC50 (human GLUT1): +++ (pIC50 ≧ 6.00)
- GLUT2 pIC50 (human GLUT2): ++ (pIC50 5.00-5.99)
- GLUT3 pIC50 (human GLUT3): +++ (pIC50 ≧ 6.00)
- GLUT4 pIC50 (human GLUT4): +++ (pIC50 ≧ 6.00)
Structure (SMILES): CN(c1ccc2nc(-c3ccc(Cl)cc3Cl)c(CN3CCN(C(=O)C(C)(C)O)CC3)n2c1)S(C)(=O)=O [Compound 381]

Second part, the molecule before the results:

Structure (SMILES): CC(=O)N1CCN(Cc2c(-c3ccc(Cl)cc3)nc3ccc(N(C(C)C)S(C)(=O)=O)cn23)CC1 [Compound 365]
- GLUT1 pIC50 (human GLUT1): +++ (pIC50 ≧ 6.00)
- GLUT2 pIC50 (human GLUT2): ++ (pIC50 5.00-5.99)
- GLUT3 pIC50 (human GLUT3): +++ (pIC50 ≧ 6.00)
- GLUT4 pIC50 (human GLUT4): +++ (pIC50 ≧ 6.00)

Structure (SMILES): COCC(=O)N1CCN(Cc2c(-c3ccc(Cl)cc3Cl)nc3cnc(C4CC4)cn23)CC1 [Compound 311]
- GLUT1 pIC50 (human GLUT1): +++ (pIC50 ≧ 6.00)
- GLUT2 pIC50 (human GLUT2): +++ (pIC50 ≧ 6.00)
- GLUT3 pIC50 (human GLUT3): +++ (pIC50 ≧ 6.00)
- GLUT4 pIC50 (human GLUT4): +++ (pIC50 ≧ 6.00)

Structure (SMILES): CCS(=O)(=O)Nc1ccc2nc(-c3ccc(Cl)cc3)c(CN3CCN(C(C)=O)CC3)n2c1 [Compound 314]
- GLUT1 pIC50 (human GLUT1): +++ (pIC50 ≧ 6.00)
- GLUT2 pIC50 (human GLUT2): ++ (pIC50 5.00-5.99)
- GLUT3 pIC50 (human GLUT3): +++ (pIC50 ≧ 6.00)
- GLUT4 pIC50 (human GLUT4): +++ (pIC50 ≧ 6.00)

Structure (SMILES): CCS(=O)(=O)N(C)c1ccc2nc(-c3ccc(Cl)cc3)c(CN3CCN(C(C)=O)CC3)n2c1 [Compound 316]
- GLUT1 pIC50 (human GLUT1): +++ (pIC50 ≧ 6.00)
- GLUT2 pIC50 (human GLUT2): ++ (pIC50 5.00-5.99)
- GLUT3 pIC50 (human GLUT3): +++ (pIC50 ≧ 6.00)
- GLUT4 pIC50 (human GLUT4): +++ (pIC50 ≧ 6.00)

Structure (SMILES): Fc1ccc(-c2ccc3nc(-c4ccc(Cl)cc4)c(CN4CCOCC4)n3c2)cc1 [Compound 79]
- GLUT1 pIC50 (human GLUT1): +− (pIC50 < 4.00)
- GLUT2 pIC50 (human GLUT2): +− (pIC50 < 4.00)
- GLUT3 pIC50 (human GLUT3): + (pIC50 4.00-4.99)
- GLUT4 pIC50 (human GLUT4): ++ (pIC50 5.00-5.99)

Structure (SMILES): O=C(c1cnccn1)N1CCN(Cc2c(-c3ccc(Cl)cc3Cl)nc3cnc(C4CC4)cn23)CC1 [Compound 273]
- GLUT1 pIC50 (human GLUT1): +++ (pIC50 ≧ 6.00)
- GLUT2 pIC50 (human GLUT2): +++ (pIC50 ≧ 6.00)
- GLUT3 pIC50 (human GLUT3): +++ (pIC50 ≧ 6.00)
- GLUT4 pIC50 (human GLUT4): +++ (pIC50 ≧ 6.00)

Structure (SMILES): CN(c1ccc2nc(-c3ccc(Cl)cc3Cl)c(CN3CCNC(=O)C3)n2c1)S(C)(=O)=O [Compound 355]
- GLUT1 pIC50 (human GLUT1): +++ (pIC50 ≧ 6.00)
- GLUT2 pIC50 (human GLUT2): +++ (pIC50 ≧ 6.00)
- GLUT3 pIC50 (human GLUT3): +++ (pIC50 ≧ 6.00)
- GLUT4 pIC50 (human GLUT4): +++ (pIC50 ≧ 6.00)

Structure (SMILES): CNS(=O)(=O)c1ccc2nc(-c3ccc(Cl)cc3)c(CN3CCN(C(C)=O)CC3)n2c1 [Compound 351]
- GLUT1 pIC50 (human GLUT1): +++ (pIC50 ≧ 6.00)
- GLUT2 pIC50 (human GLUT2): ++ (pIC50 5.00-5.99)
- GLUT3 pIC50 (human GLUT3): +++ (pIC50 ≧ 6.00)
- GLUT4 pIC50 (human GLUT4): +++ (pIC50 ≧ 6.00)

Structure (SMILES): CC(=O)N1CCN(Cc2c(-c3ccc(Cl)cc3)nc3cnc(C4CC4)cn23)CC1 [Compound 187]
- GLUT1 pIC50 (human GLUT1): +++ (pIC50 ≧ 6.00)
- GLUT2 pIC50 (human GLUT2): +++ (pIC50 ≧ 6.00)
- GLUT3 pIC50 (human GLUT3): +++ (pIC50 ≧ 6.00)
- GLUT4 pIC50 (human GLUT4): +++ (pIC50 ≧ 6.00)

Structure (SMILES): CC(=O)N1CCN(Cc2c(-c3ccc(Cl)cc3Cl)nc3ccc(N(C(F)F)S(C)(=O)=O)cn23)CC1 [Compound 367]
- GLUT1 pIC50 (human GLUT1): +++ (pIC50 ≧ 6.00)
- GLUT2 pIC50 (human GLUT2): +++ (pIC50 ≧ 6.00)
- GLUT3 pIC50 (human GLUT3): +++ (pIC50 ≧ 6.00)
- GLUT4 pIC50 (human GLUT4): +++ (pIC50 ≧ 6.00)

Structure (SMILES): CCCS(=O)(=O)N(C)c1ccc2nc(-c3ccc(Cl)cc3)c(CN3CCN(C(C)=O)CC3)n2c1 [Compound 341]
- GLUT1 pIC50 (human GLUT1): +++ (pIC50 ≧ 6.00)
- GLUT2 pIC50 (human GLUT2): +− (pIC50 < 4.00)
- GLUT3 pIC50 (human GLUT3): +++ (pIC50 ≧ 6.00)
- GLUT4 pIC50 (human GLUT4): +++ (pIC50 ≧ 6.00)
